Assay: mn = molality of the nth substance listed, in mol/kg
Settings: for surface tension liquid-gas: Maximal bubble pressure; for mass density: 100 kPa, Liquid, Vibrating tube method

CC(=O)[O-].CCCCC[n+]1ccn(C)c1 [1-methyl-3-pentylimidazolium acetate] + O
Settings	mass density [kg/m3]	surface tension liquid-gas [mN/m]
288.15 K, m1 = 0.0113	1000.14	73.1
288.15 K, m1 = 0.0167	1000.28	73
288.15 K, m1 = 0.0278	1000.42	72.7
288.15 K, m1 = 0.0448	1000.64	72.2
288.15 K, m1 = 0.1117	1001.58	70.7
288.15 K, m1 = 0.1681	1002.3	69.3
288.15 K, m1 = 0.2233	1002.98	68
288.15 K, m1 = 0.2831	1003.85	66.7
288.15 K, m1 = 0.3358	1004.57	65.4
288.15 K, m1 = 0.3919	1005.36	64.1
288.15 K, m1 = 0.448	1006.14	62.9
288.15 K, m1 = 0.5032	1006.89	61.9
293.15 K, m1 = 0.0113	999.1	72.4
293.15 K, m1 = 0.0167	999.21	72.3
293.15 K, m1 = 0.0278	999.36	71.9
293.15 K, m1 = 0.0448	999.54	71.4
293.15 K, m1 = 0.1117	1000.47	69.9
293.15 K, m1 = 0.1681	1001.12	68.5
293.15 K, m1 = 0.2233	1001.89	67.4
293.15 K, m1 = 0.2831	1002.69	66
293.15 K, m1 = 0.3358	1003.38	64.7
293.15 K, m1 = 0.3919	1004.16	63.5
293.15 K, m1 = 0.448	1004.92	62.2
293.15 K, m1 = 0.5032	1005.68	61.2
298.15 K, m1 = 0.0113	997.82	71.6
298.15 K, m1 = 0.0167	997.9	71.4
298.15 K, m1 = 0.0278	998.08	71.1
298.15 K, m1 = 0.0448	998.25	70.7
298.15 K, m1 = 0.1117	999.05	69.3
298.15 K, m1 = 0.1681	999.71	67.9
298.15 K, m1 = 0.2233	1000.49	66.7
298.15 K, m1 = 0.2831	1001.32	65.4
298.15 K, m1 = 0.3358	1002.01	64.1
298.15 K, m1 = 0.3919	1002.76	62.9
298.15 K, m1 = 0.448	1003.5	61.7
298.15 K, m1 = 0.5032	1004.2	60.7
303.15 K, m1 = 0.0113	996.33	70.8
303.15 K, m1 = 0.0167	996.39	70.6
303.15 K, m1 = 0.0278	996.54	70.4
303.15 K, m1 = 0.0448	996.73	69.9
303.15 K, m1 = 0.1117	997.44	68.5
303.15 K, m1 = 0.1681	998.19	67
303.15 K, m1 = 0.2233	998.96	65.9
303.15 K, m1 = 0.2831	999.76	64.6
303.15 K, m1 = 0.3358	1000.44	63.3
303.15 K, m1 = 0.3919	1001.15	62.1
303.15 K, m1 = 0.448	1001.84	60.8
303.15 K, m1 = 0.5032	1002.51	59.8
308.15 K, m1 = 0.0113	994.67	69.9
308.15 K, m1 = 0.0167	994.74	69.8
308.15 K, m1 = 0.0278	994.85	69.5
308.15 K, m1 = 0.0448	995.01	69.1
308.15 K, m1 = 0.1117	995.82	67.6
308.15 K, m1 = 0.1681	996.5	66.2
308.15 K, m1 = 0.2233	997.24	65.1
308.15 K, m1 = 0.2831	998.03	63.9
308.15 K, m1 = 0.3358	998.7	62.7
308.15 K, m1 = 0.3919	999.4	61.4
308.15 K, m1 = 0.448	1000.08	60.2
308.15 K, m1 = 0.5032	1000.73	59.2
313.15 K, m1 = 0.0113	992.81	69.1
313.15 K, m1 = 0.0167	992.88	69
313.15 K, m1 = 0.0278	992.97	68.7
313.15 K, m1 = 0.0448	993.11	68.2
313.15 K, m1 = 0.1117	993.98	66.8
313.15 K, m1 = 0.1681	994.62	65.5
313.15 K, m1 = 0.2233	995.34	64.4
313.15 K, m1 = 0.2831	996.08	63.2
313.15 K, m1 = 0.3358	996.74	61.9
313.15 K, m1 = 0.3919	997.43	60.7
313.15 K, m1 = 0.448	998.1	59.5
313.15 K, m1 = 0.5032	998.74	58.6
318.15 K, m1 = 0.0113	990.79	68.3
318.15 K, m1 = 0.0167	990.87	68.2
318.15 K, m1 = 0.0278	990.95	67.9
318.15 K, m1 = 0.0448	991.1	67.5
318.15 K, m1 = 0.1117	991.99	66.1
318.15 K, m1 = 0.1681	992.61	64.8
318.15 K, m1 = 0.2233	993.28	63.6
318.15 K, m1 = 0.2831	994.03	62.3
318.15 K, m1 = 0.3358	994.67	61.1
318.15 K, m1 = 0.3919	995.33	60
318.15 K, m1 = 0.448	995.97	58.9
318.15 K, m1 = 0.5032	996.58	57.9

CC(=O)[O-].CCCn1cc[n+](C)c1 [1-propyl-3-methylimidazolium acetate] + O
Settings	mass density [kg/m3]	surface tension liquid-gas [mN/m]
288.15 K, m1 = 0.0113	1000.22	73.4
288.15 K, m1 = 0.0172	1000.35	73.2
288.15 K, m1 = 0.0279	1000.55	72.8
288.15 K, m1 = 0.0446	1000.78	72.5
288.15 K, m1 = 0.1119	1001.76	71
288.15 K, m1 = 0.1673	1002.56	69.8
288.15 K, m1 = 0.2244	1003.49	68.6
288.15 K, m1 = 0.2808	1004.43	67.4
288.15 K, m1 = 0.3352	1005.37	66.2
288.15 K, m1 = 0.3925	1006.31	65.1
288.15 K, m1 = 0.448	1007.25	64
288.15 K, m1 = 0.5037	1007.98	63
293.15 K, m1 = 0.0113	999.22	72.6
293.15 K, m1 = 0.0172	999.35	72.5
293.15 K, m1 = 0.0279	999.53	72.1
293.15 K, m1 = 0.0446	999.76	71.8
293.15 K, m1 = 0.1119	1000.68	70.5
293.15 K, m1 = 0.1673	1001.46	69
293.15 K, m1 = 0.2244	1002.37	67.8
293.15 K, m1 = 0.2808	1003.28	66.7
293.15 K, m1 = 0.3352	1004.16	65.5
293.15 K, m1 = 0.3925	1005.08	64.4
293.15 K, m1 = 0.448	1005.89	63.3
293.15 K, m1 = 0.5037	1006.64	62.4
298.15 K, m1 = 0.0113	997.99	71.8
298.15 K, m1 = 0.0172	998.1	71.6
298.15 K, m1 = 0.0279	998.25	71.3
298.15 K, m1 = 0.0446	998.46	70.9
298.15 K, m1 = 0.1119	999.35	69.6
298.15 K, m1 = 0.1673	1000.14	68.4
298.15 K, m1 = 0.2244	1001.01	67
298.15 K, m1 = 0.2808	1001.86	66
298.15 K, m1 = 0.3352	1002.67	64.8
298.15 K, m1 = 0.3925	1003.62	63.7
298.15 K, m1 = 0.448	1004.43	62.6
298.15 K, m1 = 0.5037	1005.19	61.6
303.15 K, m1 = 0.0113	996.54	71
303.15 K, m1 = 0.0172	996.62	70.8
303.15 K, m1 = 0.0279	996.78	70.5
303.15 K, m1 = 0.0446	996.99	70.1
303.15 K, m1 = 0.1119	997.84	68.8
303.15 K, m1 = 0.1673	998.61	67.6
303.15 K, m1 = 0.2244	999.46	66.3
303.15 K, m1 = 0.2808	1000.3	65.1
303.15 K, m1 = 0.3352	1001.12	64
303.15 K, m1 = 0.3925	1001.97	62.9
303.15 K, m1 = 0.448	1002.83	61.8
303.15 K, m1 = 0.5037	1003.47	60.9
308.15 K, m1 = 0.0113	994.86	70.2
308.15 K, m1 = 0.0172	994.92	70
308.15 K, m1 = 0.0279	995.09	69.7
308.15 K, m1 = 0.0446	995.28	69.3
308.15 K, m1 = 0.1119	996.14	68.1
308.15 K, m1 = 0.1673	996.89	66.8
308.15 K, m1 = 0.2244	997.74	65.4
308.15 K, m1 = 0.2808	998.56	64.4
308.15 K, m1 = 0.3352	999.31	63.3
308.15 K, m1 = 0.3925	1000.19	62.2
308.15 K, m1 = 0.448	1000.95	61.2
308.15 K, m1 = 0.5037	1001.66	60.2
313.15 K, m1 = 0.0113	992.97	69.3
313.15 K, m1 = 0.0172	993.03	69.1
313.15 K, m1 = 0.0279	993.19	68.8
313.15 K, m1 = 0.0446	993.36	68.5
313.15 K, m1 = 0.1119	994.21	67.1
313.15 K, m1 = 0.1673	994.99	65.9
313.15 K, m1 = 0.2244	995.82	64.7
313.15 K, m1 = 0.2808	996.66	63.6
313.15 K, m1 = 0.3352	997.38	62.4
313.15 K, m1 = 0.3925	998.21	61.4
313.15 K, m1 = 0.448	998.97	60.4
313.15 K, m1 = 0.5037	999.65	59.5
318.15 K, m1 = 0.0113	990.93	68.5
318.15 K, m1 = 0.0172	991.01	68.4
318.15 K, m1 = 0.0279	991.15	68
318.15 K, m1 = 0.0446	991.33	67.7
318.15 K, m1 = 0.1119	992.2	66.4
318.15 K, m1 = 0.1673	992.92	65.2
318.15 K, m1 = 0.2244	993.77	64.1
318.15 K, m1 = 0.2808	994.56	63
318.15 K, m1 = 0.3352	995.34	61.9
318.15 K, m1 = 0.3925	996.12	60.9
318.15 K, m1 = 0.448	996.87	59.8
318.15 K, m1 = 0.5037	997.59	58.9

O [water] + CC(=O)[O-].CCCCC[n+]1ccn(C)c1
m2 = 0
Settings	mass density [kg/m3]	surface tension liquid-gas [mN/m]
288.15 K	–	73.5
293.15 K	–	72.8
298.15 K	–	72
303.15 K	–	71.2
308.15 K	994.06	70.4
313.15 K	–	69.6
318.15 K	–	68.7

Source: the NIST ThermoML archive (doi:10.1016/j.jct.2018.07.012)
